Experimental data: US20040073958A1, “Transgenic animal having drug metabolism enzyme gene and utilization thereof” (priority 2001, published 2004)
Values joined by “and” are separate entries in the source; they are usually repeats but may differ in a detail not shown here. Equal values may be shown once.

Key:
rats and Rhesus monkeys = conditions: cited from earlier work; for teratogenicity in rats as compared with Rhesus monkeys: administered to rats at corresponding generation stages
rabbit = conditions: administration of cyclooxygenase inhibitor; cited from earlier work
36p Tg mice = assay: Teratogenicity and fetal toxicity effects of thalidomide in 36p Tg mouse; conditions: for Details of Malformation: number of fetuses in brackets
Description: Frozen eggs of the transgenic mouse were prepared in accordance with “Example 4: Production of fertilized egg,” and fertilized eggs of the transgenic mouse were cryopreserved. The frozen fertilized eggs were melted, and 20 eggs were respectively transplanted into the oviducts of pseudopregnant female mice of the ICR lineage, and implanted. On the 9th day of gestation, thalidomide was administered into the maternal peritoneal cavity. The effect of thalidomide was tested at the dosage of: 100 mg/kg, and 200 mg/kg. A mixed solution of Tween 20 and physiological saline (1:3) was used as a vehicle. On the day before the delivery, which is the 19th day of gestation, the maternal body was subjected to laparotomy to observe the conditions inside the womb and the presence of teratogenicity and fetal toxicity in the generated and grown fetus. Also, tissues were collected from the fetuses generated and grown in the womb, or vestige of fetal matter in the womb, DNA was extracted therefrom, and the genotype was assayed by PCR The results are summarized in Table 4.

rat = conditions: early test using a rat; cited from earlier work
Salmonella TA100 = conditions: cited from earlier work

NC(=O)NO [hydroxylurea]
teratogenicity in rats as compared with Rhesus monkeys (rats and Rhesus monkeys): teratogenicity was observed at a lower dose

CC1=C(/C=C/C(C)=C/C=C/C(C)=C/C(=O)O)C(C)(C)CCC1 [retinoic acid]
teratogenicity in rats as compared with Rhesus monkeys (rats and Rhesus monkeys): teratogenicity was observed at a lower dose

CN(Cc1cnc2nc(N)nc(N)c2n1)c1ccc(C(=O)N[C@@H](CCC(=O)O)C(=O)O)cc1 [methotrexate]
teratogenicity in rats as compared with Rhesus monkeys (rats and Rhesus monkeys): teratogenicity was observed at a lower dose | sensitivity of rats higher than that of monkeys (rats and Rhesus monkeys; teratogenic sensitivity, rats versus monkeys): 20 times

CC(=O)Oc1ccccc1C(=O)O [acetylsalicylic acid]
effect on teratogenicity of thalidomide (rabbit): suppresses the teratogenicity of thalidomide | teratogenicity in rats as compared with Rhesus monkeys (rats and Rhesus monkeys): teratogenicity was observed at a lower dose

O=c1[nH]cc(F)c(=O)[nH]1 [5-fluorouracil]
teratogenicity in rats as compared with Rhesus monkeys (rats and Rhesus monkeys): teratogenicity was observed at a lower dose

O=C1CCC(N2C(=O)c3ccccc3C2=O)C(=O)N1 (centres unmarked) [Thalidomide, thalidomide]
Implants Total (36p Tg mice; 100 mg/kg i.p. day 9 of gestation, laparotomy day 19, single dam): 15 and 14 | Implants Total (36p Tg mice; 100 mg/kg, Total of 2 dams): 29 | Implants/dam (36p Tg mice; 100 mg/kg, Total of 2 dams): 14.5 | Live fetuses/dam (36p Tg mice; 100 mg/kg, Total of 2 dams): 1.5 | Malformations total (%) (36p Tg mice; 100 mg/kg, Total of 2 dams): 33.3% | Malformations/Tg (%) (36p Tg mice; 100 mg/kg, Total of 2 dams): 100.0% | Malformations/nTg (%) (36p Tg mice; 100 mg/kg, Total of 2 dams): 0.0% | Resorptions (%) (36p Tg mice; 100 mg/kg, Total of 2 dams): 89.7% | Tg fetuses (%) (36p Tg mice; 100 mg/kg, Total of 2 dams): 33.3% | Tg/Malformations (%) (36p Tg mice; 100 mg/kg, Total of 2 dams): 100.0% | nTg fetuses (%) (36p Tg mice; 100 mg/kg, Total of 2 dams): 66.7% | Details of Malformation (36p Tg mice; 100 mg/kg): 100 mg/kg: umbilical hernia (1) | Malformations/Tg (%) (36p Tg mice; 100 mg/kg, single dam): 100.0% | Malformations/nTg (%) (36p Tg mice; 100 mg/kg, single dam): 0.0% | Resorptions (%) (36p Tg mice; 100 mg/kg, single dam): 93.3% and 85.7% | Tg/Malformations (%) (36p Tg mice; 100 mg/kg, single dam): 100.0% | Implants Total (36p Tg mice; 200 mg/kg i.p. day 9 of gestation, laparotomy day 19, single dam): 8 and 16 | Implants Total (36p Tg mice; 200 mg/kg, Total of 2 dams): 24 | Implants/dam (36p Tg mice; 200 mg/kg, Total of 2 dams): 12.0 | Live fetuses/dam (36p Tg mice; 200 mg/kg, Total of 2 dams): 3.0 | Malformations total (%) (36p Tg mice; 200 mg/kg, Total of 2 dams): 16.7% | Malformations/Tg (%) (36p Tg mice; 200 mg/kg, Total of 2 dams): 33.3% | Malformations/nTg (%) (36p Tg mice; 200 mg/kg, Total of 2 dams): 0.0% | Resorptions (%) (36p Tg mice; 200 mg/kg, Total of 2 dams): 70.8% | Tg fetuses (%) (36p Tg mice; 200 mg/kg, Total of 2 dams): 50.0% | Tg/Malformations (%) (36p Tg mice; 200 mg/kg, Total of 2 dams): 100.0% | nTg fetuses (%) (36p Tg mice; 200 mg/kg, Total of 2 dams): 50.0% | Details of Malformation (36p Tg mice; 200 mg/kg): 200 mg/kg: umbilical hernia (1) | Malformations total (%) (36p Tg mice; 200 mg/kg, single dam): 16.7% | Malformations/Tg (%) (36p Tg mice; 200 mg/kg, single dam): 33.3% | Malformations/nTg (%) (36p Tg mice; 200 mg/kg, single dam): 0.0% | Resorptions (%) (36p Tg mice; 200 mg/kg, single dam): 100.0% and 56.3% | Tg fetuses (%) (36p Tg mice; 200 mg/kg, single dam): 50.0% | Tg/Malformations (%) (36p Tg mice; 200 mg/kg, single dam): 100.0% | nTg fetuses (%) (36p Tg mice; 200 mg/kg, single dam): 50.0% | malformation of the fetus (rat): did not develop any malformation | sensitivity of monkeys relative to that of rats (rats and Rhesus monkeys; teratogenic sensitivity, monkeys versus rats): ≥ 10 times | sensitivity of rats compared with that of Rhesus monkeys (rats and Rhesus monkeys; teratogenic sensitivity): significantly lower

Aflatoxin B1
metabolic activation in mutagenicity test (Salmonella TA100): efficiently activated

CC[C@]1(O)C[C@H]2CN(CCc3c([nH]c4ccccc34)[C@@](C(=O)OC)(c3cc4c(cc3OC)N(C=O)[C@H]3[C@@](O)(C(=O)OC)[C@H](OC(C)=O)[C@]5(CC)C=CCN6CC[C@]43[C@@H]65)C2)C1 [vincristine]
teratogenicity in rats as compared with Rhesus monkeys (rats and Rhesus monkeys): teratogenicity was observed at a lower dose
